Measurements as given in paper PMC3701073, “The Mode of Inhibitor Binding to Peptidyl-tRNA Hydrolase: Binding Studies and Structure Determination of Unbound and Bound Peptidyl-tRNA Hydrolase from Acinetobacter baumannii” (PLoS ONE, 2013).

Target: T1, peptidyl-tRNA hydrolase from Acinetobacter baumannii (AbPth) (Acinetobacter baumannii, UniProt D0C9L6)
T1 construct: gene pth; full length, 193 residues (Met1-Ala193), N-terminal 6xHis tag (pET-28a, NdeI/XhoI; cleavage not mentioned), E. coli BL21(DE3)
T1 sequence (D0C9L6 1-193): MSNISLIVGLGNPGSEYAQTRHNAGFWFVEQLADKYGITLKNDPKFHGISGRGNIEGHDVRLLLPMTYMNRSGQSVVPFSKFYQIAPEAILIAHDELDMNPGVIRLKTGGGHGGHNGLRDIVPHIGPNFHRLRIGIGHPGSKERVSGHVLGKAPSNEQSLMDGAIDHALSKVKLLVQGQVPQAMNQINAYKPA
Experiment: intrinsic fluorescence quenching (Scatchard)
Assay type: binding

Structure (SMILES) | Kd [nM]
Nc1ccn([C@@H]2O[C@H](CO)[C@@H](O)[C@H]2O)c(=O)n1 [cytidine] | 4.79
O=c1ccn([C@@H]2O[C@H](CO)[C@@H](O)[C@H]2O)c(=O)[nH]1 [uridine] | ~2.11
